Target: Cathepsin S (Homo sapiens, UniProt P25774)
Assay: Enzyme Inhibition Assay: Enzyme activity is measured by observing the increase in fluorescence intensity caused by cleavage of a peptide substrate containing a fluorophore whose emission is quenched in the intact peptide.Assay buffer: 100 mM potassium phosphate pH 6.5, EDTA-Na 5 mM, Triton X-100 0.001%, DTT 5 mM.Enzymes (all at 1 nM): human and mouse Cathepsin S, Cat K, Cat B, Cat L.Substrate (20 μM): Z-Val-Val-Arg-AMC, except for Cat K which uses Z-Leu-Arg-AMC (both from Bachem).Z=Benzyloxycarbonyl.AMC=7-Amino-4-Methyl-Coumarin.DTT=dithiothreitol.Final volume: 100 μL.Excitation 360 nm, Emission 465 nm.Enzyme is added to the substance dilutions in 96-well microtitre plates and the reaction is started with substrate.

Sequence of Cathepsin S (P25774 whole entry): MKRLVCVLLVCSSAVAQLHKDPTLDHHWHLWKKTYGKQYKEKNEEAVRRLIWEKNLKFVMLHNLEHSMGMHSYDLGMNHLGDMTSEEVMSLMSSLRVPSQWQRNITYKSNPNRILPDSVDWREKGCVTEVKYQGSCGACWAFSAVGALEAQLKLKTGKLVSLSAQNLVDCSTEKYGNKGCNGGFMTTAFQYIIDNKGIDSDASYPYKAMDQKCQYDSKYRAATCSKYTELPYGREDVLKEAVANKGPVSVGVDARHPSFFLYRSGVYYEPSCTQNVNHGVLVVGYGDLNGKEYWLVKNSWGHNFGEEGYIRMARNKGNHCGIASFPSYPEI

| IC50 [nM] | SMILES |
| --- | --- |
| 0.625 | N#CC1(NC(=O)[C@@H]2C[C@@H](S(=O)(=O)c3ccc(-n4cnc(Cl)n4)cc3C(F)(F)F)CN2C(=O)C2(C(F)(F)F)CC2)CC1 |
| 0.752 | N#CC1(NC(=O)[C@@H]2C[C@@H](S(=O)(=O)c3ccc(-n4cc(C(F)(F)F)cn4)cc3C(F)(F)F)CN2C(=O)C2(C(F)(F)F)CC2)CC1 |
| 0.349 | Cc1nnnn1-c1ccc(S(=O)(=O)[C@@H]2C[C@@H](C(=O)NC3(C#N)CC3)N(C(=O)C3(C(F)(F)F)CC3)C2)c(C(F)(F)F)c1 |
| 0.584 | N#CC1(NC(=O)[C@@H]2C[C@@H](S(=O)(=O)c3ccc(-n4cnnn4)cc3C(F)(F)F)CN2C(=O)C2(C(F)(F)F)CC2)CC1 |
| 0.391 | N#CC1(NC(=O)[C@@H]2C[C@@H](S(=O)(=O)c3ccc(-n4cncn4)cc3C(F)(F)F)CN2C(=O)C2(C(F)(F)F)CC2)CC1 |
| 0.506 | N#CC1(NC(=O)[C@@H]2C[C@@H](S(=O)(=O)c3ccc(-n4nccn4)cc3C(F)(F)F)CN2C(=O)C2(C(F)(F)F)CC2)CC1 |
